# From patent publication US10975078B2, “Fused indazole pyridone compounds as antivirals” (priority 2017, dated 2021)
# Tested on: HBsAg secretion, HepG2-Clone42 cells (Tet-inducible HBV-expressing, HBV ayw strain)
# Assay: HBsAg assay (HBsAg ELISA, secreted HBV sAg from HepG2-Clone42 cells)
# Format: cell-based
# Conditions: Hepatitis B virus, read-out: HBsAg (nM), EC50 = concentration at which HBsAg secretion was reduced 50% compared to DMSO control
# Protocol: HepG2-Clone42, a Tet-inducible HBV-expressing cell line with a stably integrated 1.3 mer copy of the HBV ayw strain, was generated based on the Tet-inducible HepAD38 cell line with slight modifications. Ladner S K, et al., Antimicrobial Agents and Chemotherapy. 41(8):1715-1720 (1997). HepG2-Clone42 cells were cultured in DMEM/F-12+Glutamax™ (Life Technologies, Carlsbad, Calif., USA), supplemented with 10% fetal bovine serum (Life Technologies), G-418 (Corning, Manassas, Va., USA) at a final concentration of 0.5 mg/mL, and 5 μg/mL Doxycycline (Sigma, St. Louis, Mo., USA) and maintained in 5% CO2 at 37° C.
# HepG2-Clone42 cells were seeded into black clear-bottom 96-well plates at a concentration of 6.0×10^4 cells/well. 24 hours post-seeding, the cells were treated with 200 μl/well of media containing five-fold serial dilutions of compounds in DMSO. DMSO alone was used as the no drug control. The final DMSO concentration in all wells was 0.5%.
# The HBsAg ELISA kit (Alpha Diagnostic International, San Antonio, Tex., USE, Catalog #4110) was used to determine the level (semi-quantitative) of secreted HBV sAg. The HBSAg ELISA assay was performed following the manufacturer's protocol as described.
# Step 1. Pipet 100 μL each of compound or DMSO treated samples into HBsAg ELISA plates. Seal plates and incubate at room temp for 60 minutes.
# Step 2. Aspirate samples and wash three times with Wash Buffer. Dispense 100 μL of antibody-HRP conjugate to each well. Incubate at room temp for 30 minutes.
# Step 3. Aspirate samples and wash three times with Wash Buffer. Add 100 μL of TMB Substrate to all wells and incubate 15 minutes at room temp.
# Step 4. Dispense 100 μL of Stop Solution to each well. Measure absorbance of ELISA plate at 450 nm.
# Dose-response curves were generated and the EC50 value was defined as the compound concentration at which HBsAg secretion was reduced 50% compared to the DMSO control.
# EC50 values were determined as follows:
# Determine the percent of HBsAg secretion inhibition. Calculate the percent inhibition on of HBsAg secretion inhibition using the following equation: […]
# where XC is the absorbance signal from compound-treated well; MB is average absorbance signal (background signal) for column 12 (no cells+HBsAg ELISA sample buffer) and MD is average absorbance signal from DMSO-treated wells. Then calculate EC50 values by non-linear regression using a four parameter curve logistic equation.
# The curve fit model employed is XLFit Dose Response One Site Model 204: y=(A+((B−A)/(1+(10^((C−x)*D))))) where A is the minimum y value, B is the maximum y value, C is the log EC50 value, and D is the slope factor. In the following table+≥100 nM; 100 nM>++≥1 nM; 1 nM>+++
row,Structure (SMILES),EC50 [nM]
1,"COc1ccc2c3n(nc2c1)CC(C(C)(C)C)n1cc(C(=O)O)c(=O)cc1-3 (single isomer, unassigned) [Example 1.2-I, 6-(tert-butyl)-11-methoxy-2-oxo-6,7-dihydro-2H-pyrido[2′,1′:3,4]pyrazino[1,2-b]indazole-3-carboxylic acid]",1 to 100
2,"CCOCCCOc1cccc2c3n(nc12)CC(C(C)(C)C)n1cc(C(=O)O)c(=O)cc1-3 (racemic) [Example 2.14, 6-(tert-butyl)-10-(3-ethoxypropoxy)-2-oxo-6,7-dihydro-2H-pyrido[2′,1′:3,4]pyrazino[1,2-b]indazole-3-carboxylic Acid]",< 1
3,"CC(C)(C)C1Cn2nc3c(OCCOC(F)(F)F)cccc3c2-c2cc(=O)c(C(=O)O)cn21 (racemic) [Example 2.9, 6-(tert-butyl)-2-oxo-10-(2-(trifluoromethoxy)ethoxy)-6,7-dihydro-2H-pyrido[2′,1′:3,4]pyrazino[1,2-b]indazole-3-carboxylic Acid]",< 1
4,"CC(C)COc1cccc2c3n(nc12)CC(C(C)(C)C)n1cc(C(=O)O)c(=O)cc1-3 (racemic) [Example 2.16, 6-(tert-butyl)-10-isobutoxy-2-oxo-6,7-dihydro-2H-pyrido[2′,1′:3,4]pyrazino[1,2-b]indazole-3-carboxylic Acid]",< 1
5,"CC(C)(C)C1Cn2nc3c(OCCCOC(F)(F)F)cccc3c2-c2cc(=O)c(C(=O)O)cn21 (racemic) [Example 2.19, 6-(tert-butyl)-2-oxo-10-(3-(trifluoromethoxy)propoxy)-6,7-dihydro-2H-pyrido[2′,1′:3,4]pyrazino[1,2-b]indazole-3-carboxylic Acid]",< 1
6,"CC(C)(C)C1Cn2nc3c(OCC4CCCO4)cccc3c2-c2cc(=O)c(C(=O)O)cn21 (centres unmarked) [Example 2.25, 6-(tert-butyl)-2-oxo-10-((tetrahydrofuran-2-yl)methoxy)-6,7-dihydro-2H-pyrido[2′,1′:3,4]pyrazino[1,2-b]indazole-3-carboxylic Acid]",1 to 100
7,"CCOC(=O)c1cn2c(cc1=O)-c1c3cccc(OCCCOC)c3nn1CC2C(C)(C)C (racemic) [Example 2.1i, ethyl 6-(tert-butyl)-10-(3-methoxypropoxy)-2-oxo-6,7-dihydro-2H-pyrido[2′,1′:3,4]pyrazino[1,2-b]indazole-3-carboxylate]",1 to 100
8,"COCCOCCOc1cccc2c3n(nc12)CC(C(C)(C)C)n1cc(C(=O)O)c(=O)cc1-3 (racemic) [Example 2.12, 6-(tert-butyl)-10-(2-(2-methoxyethoxy)ethoxy)-2-oxo-6,7-dihydro-2H-pyrido[2′,1′:3,4]pyrazino[1,2-b]indazole-3-carboxylic Acid]",1 to 100
9,"CC(C)(C)C1Cn2nc3c(OCC(=O)O)cccc3c2-c2cc(=O)c(C(=O)O)cn21 (racemic) [Example 2.23, 6-(tert-butyl)-10-(carboxymethoxy)-2-oxo-6,7-dihydro-2H-pyrido[2′,1′:3,4]pyrazino[1,2-b]indazole-3-carboxylic Acid]",1 to 100
10,"CC(C)(C)C1Cn2nc3c(OC[C@H]4CCC(=O)N4)cccc3c2-c2cc(=O)c(C(=O)O)cn21 (single isomer, unassigned) [Example 2.34-I]",> 100
11,"CCC(C)Oc1cccc2c3n(nc12)CC(C(C)(C)C)n1cc(C(=O)O)c(=O)cc1-3 (racemic) [Example 2.7, 10-(sec-butoxy)-6-(tert-butyl)-2-oxo-6,7-dihydro-2H-pyrido[2′,1′:3,4]pyrazino[1,2-b]indazole-3-carboxylic acid]",< 1
12,"CC(C)(C)C1Cn2nc3c(OCC4(C#N)CC4)cccc3c2-c2cc(=O)c(C(=O)O)cn21 (racemic) [Example 2.46, 6-(tert-butyl)-10-((1-cyanocyclopropyl)methoxy)-2-oxo-6,7-dihydro-2H-pyrido[2′,1′:3,4]pyrazino[1,2-b]indazole-3-carboxylic Acid]",1 to 100
13,"COc1ccc2nn3c(c2c1)-c1cc(=O)c(C(=O)O)cn1C(C(C)(C)C)C3 (single isomer, unassigned) [Example 1.3-II, 6-(tert-butyl)-12-methoxy-2-oxo-6,7-dihydro-2H-pyrido[2′,1′:3,4]pyrazino[1,2-b]indazole-3-carboxylic acid]",1 to 100
14,"CC(C)(C)C1Cn2nc3c(OC[C@@H]4CCC(=O)N4)cccc3c2-c2cc(=O)c(C(=O)O)cn21 (single isomer, unassigned) [Example 2.33-I]",> 100
15,"CN(C)C(=O)COc1cccc2c3n(nc12)CC(C(C)(C)C)n1cc(C(=O)O)c(=O)cc1-3 (racemic) [Example 2.36, 6-(tert-butyl)-10-(2-(dimethylamino)-2-oxoethoxy)-2-oxo-6,7-dihydro-2H-pyrido[2′,1′:3,4]pyrazino[1,2-b]indazole-3-carboxylic Acid]",< 1
16,"COCC(COc1cccc2c3n(nc12)CC(C(C)(C)C)n1cc(C(=O)O)c(=O)cc1-3)OC (racemic) [Example 2.13, 6-(tert-butyl)-10-(2,3-dimethoxypropoxy)-2-oxo-6,7-dihydro-2H-pyrido[2′,1′:3,4]pyrazino[1,2-b]indazole-3-carboxylic Acid]",1 to 100
17,"COCCCOc1cccc2c3n(nc12)C[C@@H](C(C)(C)C)n1cc(C(=O)O)c(=O)cc1-3 [Example 9.1, (R)-6-(tert-butyl)-10-(3-methoxypropoxy)-2-oxo-6,7-dihydro-2H-pyrido[2′,1′:3,4]pyrazino[1,2-b]indazole-3-carboxylic Acid]",< 1
18,"CC(C)(C)C1Cn2nc3c(OC(F)F)cccc3c2-c2cc(=O)c(C(=O)O)cn21 (centres unmarked) [Example 2.5, 6-(tert-butyl)-10-(difluoromethoxy)-2-oxo-6,7-dihydro-2H-pyrido[2′,1′:3,4]pyrazino[1,2-b]indazole-3-carboxylic Acid]",1 to 100

# Same assay, conditions: read-out: HBsAg, EC50 = concentration at which HBsAg secretion was reduced 50% compared to DMSO control
row,Structure (SMILES),EC50 [nM]
1,"CC(C)(C)C1Cn2nc3ccccc3c2-c2cc(=O)c(C(=O)O)cn21 (single isomer, unassigned) [Example 1.5-II, 6-(tert-butyl)-2-oxo-6,7-dihydro-2H-pyrido[2′,1′:3,4]pyrazino[1,2-b]indazole-3-carboxylic acid]",> 100
2,"COc1cccc2nn3c(c12)-c1cc(=O)c(C(=O)O)cn1C(C(C)(C)C)C3 (single isomer, unassigned) [Example 1.4-I, 6-(tert-butyl)-13-methoxy-2-oxo-6,7-dihydro-2H-pyrido[2′,1′:3,4]pyrazino[1,2-b]indazole-3-carboxylic acid]",> 100
3,"COc1cccc2c3n(nc12)C1CCC(C)(C)C1n1cc(C(=O)O)c(=O)cc1-3 (single isomer, unassigned) [Example 5.1-I, 12-methoxy-3,3-dimethyl-7-oxo-2,3,3a,14a-tetrahydro-1H,7H-cyclopenta[5,6]pyrido[2′,1′:3,4]pyrazino[1,2-b]indazole-6-carboxylic Acid]",< 1
4,"CC(C)Oc1cccc2c3n(nc12)CC(C(C)(C)C)n1cc(C(=O)O)c(=O)cc1-3 (single isomer, unassigned) [Example 2.47-I, 6-(tert-butyl)-10-isopropoxy-2-oxo-6,7-dihydro-2H-pyrido[2′,1′:3,4]pyrazino[1,2-b]indazole-3-carboxylic Acid]",> 100
5,"COCCCOc1cccc2c3n(nc12)C1CCC(C)(C)C1n1cc(C(=O)O)c(=O)cc1-3 (single isomer, unassigned) [Example 6.1-I, 12-(3-methoxypropoxy)-3,3-dimethyl-7-oxo-2,3,3a,14a-tetrahydro-1H,7H-cyclopenta[5,6]pyrido[2′,1′:3,4]pyrazino[1,2-b]indazole-6-carboxylic Acid]",> 100
